# Laboratory results reported in patent publication US6348457B1, “4-[3-benzofuranyl]piperidinyl and 4-[3-benzothienyl]piperidinyl derivatives” (Janssen Pharmaceutica N.V., priority 1922, dated 2002).
# How the values were obtained:
# Female Wistar rats = assay: Reserpine Tremor Test; assay type: in vivo, rat; conditions: route sc, dose 2.5 mg/kg, 90 min before testing; reserpine 2 mg/kg iv 60 min before testing; 15-min session; number of rats out of rats tested
# Experimental: Female Wistar rats weighing 200-220 g were used. These test animals were food deprived for 24 hours. Said rats were pretreated orally (po) or subcutaneously (sc) with a test compound at 90 minutes before testing. This pretreatment was followed by an intravenous injection of 2 mg/kg reserpine at 60 minutes before testing. Two control groups of 20 rats each were included in the experiment. The first control group consisted of rats that were only treated with a saline solution and the second control group consisted of animals which only received a saline reserpine solution. At the start of the test, the rats were individually placed in specially designed test cages and tremor activity was measured continuously during a 15-min test session. These test cages consisted of a plexiglass chamber. The floor of the test cage consisted of a plexiglass plate which was centered underneath the cage. […] The floor plate rested at its four corners on a rubber point of support. Two pieces of piezo-film were tied up next to each other underneath the middle of the floor plate. Said piezo-films were connected to an amplifier. The test cage was situated in a sound and light attenuating out box, being constantly illuminated and air-ventilated. The piezo-electric response, produced by deformation of the cage floor was amplified by an individual amplifier for each piezo-film separately. […]
smiles,measurement,setting,value
"Cc1nc2ccccn2c(=O)c1CCN1CCC(c2coc3cc(F)ccc23)CC1 [Co. No. 1, 3-[2-[4-(6-fluoro-3-benzofuranyl)-1-piperidinyl]ethyl]-2-methyl-4H-pyrido-[1,2-a]pyrimidin-4-one]",melting point,,159.8 °C
same,rats showing a tremor activity below 35 counts,Female Wistar rats,3
